Measurements reported in patent US20250387363A1, “LIQUID EPINEPHRINE PRODRUG FORMULATIONS AND LIQUID EPINEPHRINE FORMULATIONS” (Insignis Therapeutics, Inc., priority 2024, published 2025).

Legend:
[1] = Cross study epinephrine PK comparison, L-dipivefrin HCl formulations vs EpiPen 0.3 mg; assay type: in vivo, human; settings: oral formulations administered sublingually; Table 10.1
Description: FIG. 5. […] Study period I and study period II refer to the two test periods described in example 7 which are separated by a 1 week washout period.

[2] = test system: healthy adult human volunteers; assay: Cross study pharmacodynamic response comparison (SBP, DBP, PR change from baseline) vs EpiPen 0.3 mg; assay type: in vivo; settings: sublingual liquid dosage form, 10 mg dipivefrin HCl, two hours postdose
[3] = rabbits; cited from earlier work

| Compound | Epinephrine exposures compared to Epipen 0.3 mg [1] | Median SBP (Systolic Blood Pressure) change from baseline response compared to EpiPen 0.3 mg injection ([2]; FIG. 6) | Median DBP (Diastolic Blood Pressure) change from baseline response compared to EpiPen 0.3 mg injection ([2]; FIG. 7) | Median PR (Pulse Rate) change from baseline response compared to EpiPen 0.3 mg injection ([2]; FIG. 8) | PD response (SBP, DBP and PR change from baseline) compared to EpiPen 0.3 mg injection ([2]; FIGS. 6-8) | Sublingual dose giving systemic absorption equivalent to IM epinephrine [3] |
| --- | --- | --- | --- | --- | --- | --- |
| CNC[C@H](O)c1ccc(OC(=O)C(C)(C)C)c(OC(=O)C(C)(C)C)c1.Cl [L-dipivefrin HCl, L-dipivefrin hydrochloride] | comparable | greater | greater | comparable or greater | comparable or greater |  |
| CNC[C@H](O)c1ccc(O)c(O)c1 [epinephrine, 4-[(1R)-1-hydroxy-2-(methylamino)ethyl]benzene-1,2-diol] |  |  |  |  |  | 40 mg |
